From patent US20230364230A1, “COMBINATION THERAPY FOR CANCER” (ENGMAB SÀRL, priority 2020, published 2023)

Test system: H929 target cells
Experiment: Protein 1 induced ADCC after pretreatment of PBMCs with single concentration, Protein 1 dose range
Format: cell-based, human
Settings: PBMCs pretreated 24 or 48 hours with 0.1 nM CC-92480 or 1 nM CC-220; Protein 1 0 nM to 10 nM
Method: PBMCs from a healthy donor were preincubated for 24 hours or 48 hours in the presence of CC-92480 at 0.1 nM or CC-220 (iberdomide) at 1 nM or a DMSO control. After pretreatment, PBMCs were incubated for an additional 18 hours or overnight in the presence of H929 target cells with concentrations of Protein 1 ranging from 0 nM to 10 nM. Samples were analyzed via flow cytometry for H929 depletion. Specific lysis was calculated as following: (1−((test sample H929 count)/(H929 count in DMSO control without Protein 1)))*100. PBMCs were pretreated 0.1 nM of CC-92480 or 1 nM of CC-220 or DMSO control for either 24 hours (FIG. 13A) or 48 hours (FIG. 13B). After pretreatment, PBMCs were cultured with H929 target cells and 0 nM to 10 nM of Protein 1 overnight. H929 lysis was determined via flow cytometry. Pretreatment of PBMCs with single concentration of CC-92480 or CC-220 enhanced Protein 1 induced ADCC.

O=C1CC[C@H](N2Cc3c(OCc4ccc(CN5CCOCC5)cc4)cccc3C2=O)C(=O)N1 [CC-220, (S)-3-(4-((4-(Morpholinomethyl)benzyl)oxy)-1-oxoisoindolin-2-yl)piperidine-2,6-dione]
Protein 1 induced ADCC (H929 lysis): enhanced
